The target in experiment [1] is T1, Cloned human M1 receptor (CHRM1) (Homo sapiens, UniProt P11229).
T1 construct: expressed in transfected cells; host or cells: HEK293
T1 sequence (P11229 1-460): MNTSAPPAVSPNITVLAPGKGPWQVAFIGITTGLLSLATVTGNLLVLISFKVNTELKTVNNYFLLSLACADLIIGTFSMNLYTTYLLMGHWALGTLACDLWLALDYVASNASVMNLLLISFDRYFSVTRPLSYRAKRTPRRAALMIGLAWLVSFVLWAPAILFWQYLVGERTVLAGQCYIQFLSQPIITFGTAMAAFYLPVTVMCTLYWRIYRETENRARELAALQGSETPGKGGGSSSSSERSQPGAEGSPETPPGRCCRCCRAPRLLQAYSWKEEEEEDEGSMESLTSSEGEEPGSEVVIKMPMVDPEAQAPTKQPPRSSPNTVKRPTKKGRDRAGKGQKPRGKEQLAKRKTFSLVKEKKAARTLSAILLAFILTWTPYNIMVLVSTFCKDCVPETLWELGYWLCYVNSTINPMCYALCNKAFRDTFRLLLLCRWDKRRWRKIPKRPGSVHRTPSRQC
The experiment in a line: CHRM1 Ca++ Flux Assay (HEK293 M1 cells, agonist mode). The experiment is classed as cell-based. The conditions noted are these: for Emax: Percent Activity (PA), read-out: M1 FDSS PA %; for EC50: geometric mean if tested more than once, read-out: M1 FDSS EC50. Put shortly:
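In agonist mode, compound-induced intracellular Ca++ mobilization was recorded for 3 min by fluorescent imager. The cells were HEK293 stably expressing cloned human CHRM1, in Ca/Mg-free HBSS with 20 mM HEPES. Triplicate 11-point dose-responses were fitted by four-parameter regression and normalized to the carbachol EC100 response.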

In experiment [2] the target is T2, human cloned CHRM4 receptor (Homo sapiens, UniProt P08173).
T2 construct: expressed in transfected cells; host or cells: CHO-K1 (M4_CHO)
T2 sequence (P08173 1-479): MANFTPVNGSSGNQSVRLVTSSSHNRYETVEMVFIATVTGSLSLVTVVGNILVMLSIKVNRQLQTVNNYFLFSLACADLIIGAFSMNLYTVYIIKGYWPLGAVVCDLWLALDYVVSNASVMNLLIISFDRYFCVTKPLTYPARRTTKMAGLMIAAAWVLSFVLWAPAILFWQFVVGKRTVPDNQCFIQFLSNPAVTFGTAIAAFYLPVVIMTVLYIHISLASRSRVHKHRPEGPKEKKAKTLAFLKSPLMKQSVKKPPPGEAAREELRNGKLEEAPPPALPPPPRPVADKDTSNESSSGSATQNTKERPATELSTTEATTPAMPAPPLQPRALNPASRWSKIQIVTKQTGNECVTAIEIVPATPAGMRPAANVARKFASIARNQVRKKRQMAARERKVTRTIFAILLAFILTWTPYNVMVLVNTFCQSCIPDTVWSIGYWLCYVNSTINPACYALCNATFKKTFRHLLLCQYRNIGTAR
The experiment in a line: CHRM4 Ca++ Flux Assay (M4_CHO cells, agonist mode). The format is cell-based. The conditions noted are these: for Emax: Percent Activity (PA), read-out: M4 FDSS PA %; for EC50: geometric mean if tested more than once, read-out: M4 FDSS EC50. Put shortly:
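Agonist-mode calcium flux in an M4-expressing CHO-K1 line: compounds were dosed at 11 points in triplicate and fluorescence was tracked for 3 min. Cells were preloaded with Ca++ dye and kept in −Ca/−Mg HBSS with 20 μM ATP for 60 min. Efficacy is scaled to carbachol EC100; EC50s come from four-parameter regression, geometric mean across runs.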

Molecules are shown by their SMILES.

The source of these data is patent US11485742B2, “2-azaspiro[3.4]octane derivatives as M4 agonists” (NOVARTIS AG, priority 2019, dated 2022).

One may read the EC50 as the concentration giving half of the maximal effect. For the compound `Fc1ccc(OC2COC2)c(C2CCN([C@@H]3COC4(C3)CN(c3nnco3)C4)CC2)c1` [Example 1A, (S)-7-(4-(5-fluoro-2-(oxetan-3-yloxy)phenyl)piperidin-1-yl)-2-(1,3,4-oxadiazol-2-yl)-5-oxa-2-azaspiro[3.4]octane], the Emax in experiment [1] turned out to be 92%; in experiment [2], 82%. Besides, the EC50 stood at 210 nM in experiment [1] and 8 nM in experiment [2].
In the case of `COCCOc1ccc(F)cc1C1CCN([C@@H]2COC3(C2)CN(c2nnco2)C3)CC1` [Example 1L, (S)-7-(4-(5-fluoro-2-(2-methoxyethoxy)phenyl)piperidin-1-yl)-2-(1,3,4-oxadiazol-2-yl)-5-oxa-2-azaspiro[3.4]octane], in experiment [1], the Emax is 75% and the EC50 turned out to be 1320 nM. Further, in experiment [2], the Emax was 74% and the concentration giving a half-maximal response (EC50) came to 99 nM.
Regarding `Fc1ccc(OC2CC3(COC3)C2)c(C2CCN([C@H]3COC4(C3)CN(c3nnco3)C4)CC2)c1` [Example 7A, (R)-7-(4-(2-((2-oxaspiro[3.3]heptan-6-yl)oxy)-5-fluorophenyl)piperidin-1-yl)-2-(1,3,4-oxadiazol-2-yl)-5-oxa-2-azaspiro[3.4]octane], in experiment [1], the Emax was 0% and the EC50 is > 25000 nM. In addition, in experiment [2], the Emax was determined as 42% and the EC50 was 1410 nM.
For `Fc1ccc(OC[C@H]2CCOC2)c(C2CCN([C@@H]3COC4(C3)CN(c3nncs3)C4)CC2)c1` [Example 5X, (S)-7-(4-(5-fluoro-2-(((S)-tetrahydrofuran-3-yl)methoxy)phenyl)piperidin-1-yl)-2-(1,3,4-thiadiazol-2-yl)-5-oxa-2-azaspiro[3.4]octane], in that order: 75%, 2340 nM, 71% and 58 nM.
The corresponding values for `Fc1ccc(OCC2CC3(COC3)C2)c(C2CCN([C@@H]3COC4(C3)CN(c3nnco3)C4)CC2)c1` [Example 2S, (S)-7-(4-(2-((2-oxaspiro[3.3]heptan-6-yl)methoxy)-5-fluorophenyl)piperidin-1-yl)-2-(1,3,4-oxadiazol-2-yl)-5-oxa-2-azaspiro[3.4]octane] are 53%, 5410 nM, 68% and 242 nM.
With `Fc1ccc(OCC2(F)COC2)c(C2CCN([C@@H]3COC4(C3)CN(c3nnco3)C4)CC2)c1` [Example 2J, (S)-7-(4-(5-fluoro-2-((3-fluorooxetan-3-yl)methoxy)phenyl)piperidin-1-yl)-2-(1,3,4-oxadiazol-2-yl)-5-oxa-2-azaspiro[3.4]octane], in experiment [1], the Emax amounted to 103% and the EC50 turned out to be 411 nM. In experiment [2], the Emax is 90% and the EC50 is 12 nM.
`Fc1ccc(OCC2CCOCC2)c(C2CCN([C@@H]3COC4(C3)CN(c3nnco3)C4)CC2)c1` [Example 1J, (S)-7-(4-(5-fluoro-2-((tetrahydro-2H-pyran-4-yl)methoxy)phenyl)piperidin-1-yl)-2-(1,3,4-oxadiazol-2-yl)-5-oxa-2-azaspiro[3.4]octane]: in experiment [1], the Emax stood at 73% and the concentration for a half-maximal effect (EC50) worked out at 4090 nM. In experiment [2], the Emax turned out to be 79% and the EC50 came to 86 nM.
On to `CC(C)(O)CCOc1ccc(F)cc1C1CCN([C@@H]2COC3(C2)CN(c2nnco2)C3)CC1` [Example 1N, (S)-4-(2-(1-(2-(1,3,4-oxadiazol-2-yl)-5-oxa-2-azaspiro[3.4]octan-7-yl)piperidin-4-yl)-4-fluorophenoxy)-2-methylbutan-2-ol], for which the Emax in experiment [1] amounted to 82%; in experiment [2] it was 63%. Besides, the EC50 in experiment [1] was found to be 376 nM; in experiment [2], 133 nM.
Turning to `Fc1ccc(OC2CC3(COC3)C2)c(C2CCN([C@@H]3COC4(C3)CN(c3nncs3)C4)CC2)c1` [Example 5W, (S)-7-(4-(2-((2-oxaspiro[3.3]heptan-6-yl)oxy)-5-fluorophenyl)piperidin-1-yl)-2-(1,3,4-thiadiazol-2-yl)-5-oxa-2-azaspiro[3.4]octane], in experiment [1], the Emax turned out to be 68% and the EC50 was 3590 nM. For the same compound, in experiment [2], the Emax is 85% and the EC50 was determined as 104 nM.
For `Fc1ccc(OCc2ncccn2)c(C2CCN([C@@H]3COC4(C3)CN(c3nnco3)C4)CC2)c1` [Example 2I, (S)-7-(4-(5-fluoro-2-(pyrimidin-2-ylmethoxy)phenyl)piperidin-1-yl)-2-(1,3,4-oxadiazol-2-yl)-5-oxa-2-azaspiro[3.4]octane], the Emax was found to be 97% in experiment [1] and 77% in experiment [2]. Further, the 50% effective concentration (EC50) in experiment [1] was determined as 98 nM; in experiment [2] it was 12 nM.
`c1ccc(C2CCN([C@@H]3COC4(C3)CN(c3nnco3)C4)CC2)c(-c2ncco2)c1` [Example 1X, (S)-2-(1,3,4-oxadiazol-2-yl)-7-(4-(2-(oxazol-2-yl)phenyl)piperidin-1-yl)-5-oxa-2-azaspiro[3.4]octane]: the Emax in experiment [1] was determined as 99%; in experiment [2], 84%. In addition, the concentration for a half-maximal effect (EC50) in experiment [1] worked out at 1230 nM; in experiment [2], 112 nM.
For `CC(C)(O)COc1ccc(F)cc1C1CCN([C@@H]2COC3(C2)CN(c2nnco2)C3)CC1` [Example 1U, (S)-1-(2-(1-(2-(1,3,4-oxadiazol-2-yl)-5-oxa-2-azaspiro[3.4]octan-7-yl)piperidin-4-yl)-4-fluorophenoxy)-2-methylpropan-2-ol], in that order: 75%, 73%, 961 nM and 90 nM.
As for `c1ccc(C2CCN([C@@H]3COC4(C3)CN(c3nnco3)C4)CC2)c(-c2cncnc2)c1` [Example 1W, (S)-2-(1,3,4-oxadiazol-2-yl)-7-(4-(2-(pyrimidin-5-yl)phenyl)piperidin-1-yl)-5-oxa-2-azaspiro[3.4]octane], in experiment [1], the Emax stood at 94% and the EC50 turned out to be 335 nM. For the same compound, in experiment [2], the Emax was 89% and the EC50 was found to be 12 nM.
In the case of `CC(C)(O)CCOc1cc(F)ccc1C1CCN([C@@H]2COC3(C2)CN(c2nncs2)C3)CC1` [Example 5V, (S)-4-(2-(1-(2-(1,3,4-thiadiazol-2-yl)-5-oxa-2-azaspiro[3.4]octan-7-yl)piperidin-4-yl)-5-fluorophenoxy)-2-methylbutan-2-ol], the Emax in experiment [1] stood at 79%; in experiment [2], 40%. The EC50 in experiment [1] stood at 786 nM; in experiment [2] it was 250 nM.
For `CC1(COc2ccc(F)cc2C2CCN([C@@H]3COC4(C3)CN(c3nncs3)C4)CC2)COC1` [Example 2B, (S)-7-(4-(5-fluoro-2-((3-methyloxetan-3-yl)methoxy)phenyl)piperidin-1-yl)-2-(1,3,4-thiadiazol-2-yl)-5-oxa-2-azaspiro[3.4]octane], in experiment [1], the Emax is 91% and the EC50 came out at 1140 nM. In experiment [2], the Emax came out at 71% and the EC50 turned out to be 25 nM.
Take `Fc1ccc(OC2COCOC2)c(C2CCN([C@@H]3COC4(C3)CN(c3nnco3)C4)CC2)c1` [Example 1M, (S)-7-(4-(2-((1,3-dioxan-5-yl)oxy)-5-fluorophenyl)piperidin-1-yl)-2-(1,3,4-oxadiazol-2-yl)-5-oxa-2-azaspiro[3.4]octane]: in experiment [1], the Emax was 89% and the EC50 was determined as 1370 nM. Moreover, in experiment [2], the Emax is 79% and the EC50 came to 94 nM.
Regarding `COc1ccc(F)cc1C1CCN([C@@H]2COC3(C2)CN(c2nnco2)C3)CC1` [Example 1V, (S)-7-(4-(5-fluoro-2-methoxyphenyl)piperidin-1-yl)-2-(1,3,4-oxadiazol-2-yl)-5-oxa-2-azaspiro[3.4]octane], in experiment [1], the Emax worked out at 76% and the EC50 came out at 663 nM. In experiment [2], the Emax stood at 83% and the half-maximal effective concentration (EC50) worked out at 35 nM.
With `Fc1ccc(OC2CC3(COC3)C2)c(C2CCN([C@@H]3COC4(C3)CN(c3ncon3)C4)CC2)c1` [Example 6C, (S)-7-(4-(2-((2-oxaspiro[3.3]heptan-6-yl)oxy)-5-fluorophenyl)piperidin-1-yl)-2-(1,2,4-oxadiazol-3-yl)-5-oxa-2-azaspiro[3.4]octane], in experiment [1], the Emax came to 65% and the EC50 was 2420 nM. For the same compound, in experiment [2], the Emax was 74% and the EC50 came to 44 nM.
